What was measured:
[1] = test system: Haemaphysalis longicornis; assay: Test 2: killing of tick larvae of Haemaphysalis longicornis (immersion in emulsified aqueous solution); format: in vivo; details: immersed 2 to 5 minutes, 25° C. for 24 hours, read-out: Combatting Effect of Larvae of Haemaphysalis longicornis (mortality of unfed larvae)
Procedure: (§1) Groups of 50 to 100 larvae of Boophilus microplus and Haemaphysalis longicornis of about two weeks old placed in paper packets were immeresed for 2 to 5 minutes in an emulsified aqueous solution of the test compounds of a concentration of 100 ppm, and the larvae were incubated at 25° C. for 24 hours according to the procedure described by Stone and Haydock (1962), and the rate of the larvae killed were determined. Each figure indicates mortality of unfed larvae after treatment with the test compounds.

[2] = test system: Boophilus microplus; assay: Test 1: inhibition of oviposition by Boophilus microplus (acetone solution dropped on back of blood-fed females); details: Rhipicephalus microplus, topical, 336 h, read-out: Inhibition Ratio of Oviposition by Boophilus microplus
Source text: (§3) One each of the adults of female Boophilus microplus or Haemaphysalis longicornis which had been allowed to suck blood fully was placed in a flat bottom test tube having a diameter of 10 millimeters and a depth of 35 millimeters. After rendering the chemicals to be tested into acetone solutions, the solutions were dropped to the back of the ticks in an amount corresponding to 110 gamma per one gram of body weight, using a micro syringe after which the acetone was evaporated. The test tube was then transferred to a desiccator containing a small portion of water where it was left standing at a constant temperature of 30° C., and the ticks were allowed to oviposit. Two weeks later, the amount of eggs laid per 1 gram of body weight was counted. Using this value and the amount of eggs laid in the case of the control group not treated with the chemicals, the rate of inhibition of oviposition was obtained as follows: [formula] where A is the number of eggs laid per gram of body weight of ticks of the group not treated with chemicals,
(§4) B is the number of eggs laid per gram of body weight of ticks of the group treated with chemicals.
(§5) The foregoing ratio was used to indicate the effectiveness of the chemicals tested.

[3] = test system: Boophilus microplus; assay: Test 2: killing of tick larvae of Boophilus microplus (immersion in emulsified aqueous solution); format: in vivo; details: Rhipicephalus microplus, immersed 2 to 5 minutes, 25° C. for 24 hours, read-out: Combatting Effect of Larvae of Boophilus microplus (mortality of unfed larvae)
Procedure: as §1

[4] = test system: Haemaphysalis longicornis; assay: Test 1: inhibition of oviposition by Haemaphysalis longicornis (acetone solution dropped on back of blood-fed females); details: topical, 336 h, read-out: Inhibition Ratio of Oviposition by Haemaphysalis longicornis
Source text: as §3, §4, §5

[5] = Test 4: acute oral toxicity in mice; design: species or system mice (male albino, strain ddY); details: mouse, in vivo, single dose, observed for a week
Procedure: Acute oral toxicity was determined by using male albino mice strain ddY, 5 weeks old. The test compounds were administered orally once and the LD50 values were calculated after observing for a week.

[6] = test system: Boophilus microplus; assay: Test 3: killing adults of Boophilus microplus (spray of diluted Recipe 1 emulsion); format: in vivo; design: key: (+): presence of deaths was observed; (-): there were no deaths; details: female adults
Procedure: (§2) An emulsion was prepared in accordance with the foregoing Recipe 1, using as its active ingredient the compound No. 12. Several classes of spraying liquids having the concentrations indicated in Table 3 were prepared by diluting this emulsion with water. Ten female Boophilus microplus which had sucked blood fully were placed on a filter paper, and the liquid described above was sprayed onto the ticks with a glass sprayer in an amount such that the liquid would flow down the backs of the ticks. The ticks were then immediately transferred to a wet filter paper disposed in a Petri dish, and when the liquid on the backs of the ticks became somewhat dried, the dish was covered. The Petri dish was then held at a constant temperature of 30° C. for two weeks, after which the total amount of eggs laid was counted. During the time the Petri dish was held at a constant temperature, the inside of the Petri dish was maintained in a state of high humidity by dropping a small amount of water onto the filter paper daily. The effectiveness was judged by the rate of eggs laid by the several treated groups relative to the total eggs laid in the case of the ticks of the control group, which had been sprayed with only water. On the other hand, the effectiveness in killing the female adults was judged by observation of the presence or absence of deaths. The case where the presence of deaths was observed is indicated with the symbol (+), and the case where there were no deaths is indicated with the symbol (-).

[7] = test system: Boophilus microplus; assay: Test 3: inhibiting oviposition by Boophilus microplus (spray of diluted Recipe 1 emulsion); format: in vivo; details: relative to water-sprayed control, two weeks, 30° C.
Procedure: as §2

[8] = test system: mice; details: heretofore known tickicide; cited from earlier work
[9] = concentration of compound 0.003%
[10] = concentration of compound 0.01%
[11] = concentration of compound 0.03%

Compound | mortality at 100 ppm [1] [%] | pest or weed control at 110 µg/g [2] [%] | mortality at 100 ppm [3] [%] | pest or weed control at 110 µg/g [4] [%] | further results
CCN=C=NC(C)(C)c1ccccc1 [Compound 1, N-ethyl-N'-(2-phenyl-2-propyl)carbodiimide] | 98 |  |  |  | 
CCCN=C=NC(C)(C)c1ccccc1 [Compound 2, N-n-propyl-N'-(2-phenyl-2-propyl)carbodiimide] |  | 100 |  |  | 
CC(C)N=C=NC(C)(C)c1ccccc1 [Compound 3, N-iso-propyl-N'-(2-phenyl-2-propyl) carbodiimide] |  |  | 96.4 |  | 
CC(C)(C)N=C=NC(C)(C)c1ccccc1 [Compound 4, N-tert-butyl-N'-(2-phenyl-2-propyl)carbodiimide] | 80.3 |  |  |  | 
CCCCCN=C=NC(C)(C)c1ccccc1 [Compound 5, N-n-pentyl-N'-(2-phenyl-2-propyl)carbodiimide] | 100 |  |  | 100 | 
CCCCCCN=C=NC(C)(C)c1ccccc1 [Compound 6, N-n-hexyl-N'-(2-phenyl-2-propyl)carbodiimide] |  | 96.3 | 74.6 | 100 | LD50 at 168 h [5]: 2000 mg/kg
CCCCCCCN=C=NC(C)(C)c1ccccc1 [Compound 7, N-n-heptyl-N'-(2-phenyl-2-propyl)carbodiimide] |  | 100 |  | 100 | 
CCCCCCCCN=C=NC(C)(C)c1ccccc1 [Compound 8, N-n-octyl-N'-(2-phenyl-2-propyl)carbodiimide] |  | 100 | 68.5 | 100 | LD50 at 168 h [5]: 6000 mg/kg
CCCCC(CC)CN=C=NC(C)(C)c1ccccc1 (centres unmarked) [Compound 9, N-(2-ethyl-n-hexyl)-N'-(2-phenyl-2-propyl)carbodiimide] | 100 |  |  | 100 | LD50 at 168 h [5]: 7000 mg/kg
CCCCCCCCCN=C=NC(C)(C)c1ccccc1 [Compound 10, N-n-nonyl-N'-(2-phenyl-2-propyl)carbodiimide] |  | 100 |  | 100 | 
CCCCCCCCCCN=C=NC(C)(C)c1ccccc1 [Compound 11, N-n-decyl-N'-(2-phenyl-2-propyl)carbodiimide] |  | 93.1 |  | 100 | 
CCCCCCCCCCCCN=C=NC(C)(C)c1ccccc1 [Compound 12, N-n-dodecyl-N'-(2-phenyl-2-propyl)carbodiimide] | 82.2 | 100 | 86.5 | 100 | Effectiveness in Killing Adults [6, 9]: (-); Effectiveness in Killing Adults [6, 10]: (-); Effectiveness in Killing Adults [6, 11]: (-); Effectiveness in Killing Adults ([6]; concentration of compound 0.1%): (+); Effectiveness in Killing Adults ([6]; concentration of compound 0.3%): (+); Effectiveness in Killing Adults ([6]; concentration of compound 1%): (+); Rate of Eggs Laid [7, 9]: 94.8%; Rate of Eggs Laid [7, 10]: 85.5%; Rate of Eggs Laid [7, 11]: 62.6%; Rate of Eggs Laid ([7]; concentration of compound 0.1%): 0%; Rate of Eggs Laid ([7]; concentration of compound 0.3%): 0%; Rate of Eggs Laid ([7]; concentration of compound 1%): 0%; LD50 at 168 h [5]: > 16000 mg/kg
CCCCCCCCCCCCCCN=C=NC(C)(C)c1ccccc1 [Compound 13, N-n-myristyl-N'-(2-phenyl-2-propyl)carbodiimide] |  | 85 | 92.8 | 100 | 
CCCCCCCCCCCCCCCCN=C=NC(C)(C)c1ccccc1 [Compound 14, N-n-cetyl-N'-(2-phenyl-2-propyl)carbodiimide] | 80.3 |  |  | 96.6 | 
CCCCCCCCCCCCCCCCCCN=C=NC(C)(C)c1ccccc1 [Compound 15, N-n-stearyl-N'-(2-phenyl-2-propyl)carbodiimide] |  |  |  | 98 | 
CC(C)(N=C=NC1CCCCC1)c1ccccc1 [Compound 16, N-cyclohexyl-N'-(2-phenyl-2-propyl)carbodiimide] |  | 100 | 100 |  | LD50 at 168 h [5]: 6000 mg/kg
CC1CC(N=C=NC(C)(C)c2ccccc2)CC(C)(C)C1 (centres unmarked) [Compound 17, N-(3,3,5-trimethylcyclohexyl)-N'-(2-phenyl-2-propyl)carbodiimide] | 100 | 100 | 100 | 100 | LD50 at 168 h [5]: 11000 mg/kg
CC(C)(N=C=Nc1ccccc1)c1ccccc1 [Compound 18, N-phenyl-N'-(2-phenyl-2-propyl)carbodiimide] | 100 |  | 100 |  | 
Cc1ccc(N=C=NC(C)(C)c2ccccc2)cc1 [Compound 19, N-p-tolyl-N'-(2-phenyl-2-propyl)carbodiimide] | 86.6 |  | 81.8 |  | 
COc1ccc(N=C=NC(C)(C)c2ccccc2)cc1 [Compound 20, N-p-methoxyphenyl-N-'-(2-phenyl-2-propyl)carbodiimide] | 96.4 |  |  |  | 
COc1ccc(N=C=NC(C)(C)c2ccccc2)c(C)c1 [Compound 21, N-p-methoxy-o-tolyl-N'-(2-phenyl-2-propyl)carbodiimide] | 100 |  |  |  | 
CC(C)(N=C=Nc1ccc(Cl)c(Cl)c1)c1ccccc1 [Compound 22, N-3,4-dichlorophenyl-N'-(2-phenyl-2-propyl)carbodiimide] | 82.5 |  |  |  | 
CC(C)(N=C=NCc1ccccc1)c1ccccc1 [Compound 23, N-benzyl-N'-(2-phenyl-2-propyl)carbodiimide] | 99.1 | 81.9 | 100 |  | 
CC(N=C=NC(C)(C)c1ccccc1)c1ccccc1 (stereo not drawn) [Compound 24, N-α-phenylethyl-N'-(2-phenyl-2-propyl)carbodiimide] | 99.1 |  | 99.5 | 100 | 
CC(C)(N=C=NCCc1ccccc1)c1ccccc1 [Compound 25, N-β-phenylethyl-N'-(2-phenyl-2-propyl)carbodiimide] | 100 | 100 | 91.2 | 100 | 
CC(C)(N=C=NCc1ccc(Cl)cc1)c1ccccc1 [Compound 26, N-p-chlorobenzyl-N'-(2-phenyl-2-propyl)carbodiimide] | 86.4 |  | 81.9 |  | 
CC(C)(N=C=NCc1ccco1)c1ccccc1 [Compound 27, N-furfuryl-N'-(2-phenyl-2-propyl)carbodiimide] | 91.1 |  | 77.8 |  | 
Cc1cc(Cl)ccc1N=CN(C)C [Control Chemical I, reference compound] |  | 78.2 |  |  | LD50 at 168 h [5]: 160 mg/kg
CNC(=O)Oc1cccc2ccccc12 [Control Chemical II, reference compound] |  | 27 |  |  | 
CCOP(=S)(OCC)Oc1nc(Cl)c(Cl)cc1Cl [Control Chemical III, O,O-diethyl O-(3,5,6-trichloro-2-pyridyl)phosphorothioate, reference compound] |  |  |  |  | LD50 for mice [8]: 70 mg/kg; LD50 at 168 h [5]: 70 mg/kg

From patent publication US4056631A, “Method of combatting ticks” (Showa Denko K.K., priority 1973, dated 1977)
